Active and inactive are the calls of the source. How the calls were made is not given here.
System: CCRIS mutagenicity, Ames/micronucleus/aberration tests
Assay: CCRIS mutagenicity studies
Conditions: Test System: AMES SALMONELLA TYPHIMURIUM; Strain/Indicator: TA100; Metabolic Activation: NONE; Method: PREINCUBATION

Cc1cc2c3c(ccc2c2ccccc12)C(O)C(O)[C@@H]1O[C@@H]31 (stereo partly specified)
mutagenic call: inactive; negative

Reference: PubChem BioAssay AID1259407 (Chemical Carcinogenesis Research Information System (CCRIS), 2018)
